Literature values in patent US20080237028A1, “Nucleation in liquid, methods of use thereof and methods of generation thereof” (Hanoch KISLEV, priority 2006, published 2008).
≈ marks a conversion by molar mass, not a printed value.

Assays:
[1] = system: β-lactamase negative strain of Klebsiella pneumoniae; settings: planktonic
[2] = system: β-lactamase negative strain of Klebsiella pneumoniae grown as a biofilm
[3] = system: biofilms of wild-type Pseudomonas aeruginosa; settings: compared to equivalent bacteria lacking ability to generate biofilm
[4] = system: biofilm forming P. aeroginosa bacteria; settings: mature biofilm grown from bacteria treated with quorum sensing molecules; not in the untreated sample

## CC1(C)S[C@@H]2[C@H](NC(=O)[C@H](N)c3ccccc3)C(=O)N2[C@H]1C(=O)O [Ampicillin]
[1]
  minimum inhibitory concentration (MIC): 2 µg/mL (≈ 5.72 µM)
[2]; biofilm versus planktonic, 5000 μg/mL
  increase in MIC: 2500 fold
[2]; treated for 4 hours with 5000 μg/mL ampicillin
  survival of biofilm under treatment: survives well

## OCl [sodium hypochlorite]
[3]
  concentration increase required to kill biofilms: 600 fold

## NC[C@H]1O[C@H](O[C@H]2[C@H](O)[C@@H](O[C@H]3O[C@H](CO)[C@@H](O)[C@H](N)[C@H]3O)[C@H](N)C[C@@H]2N)[C@H](N)C[C@@H]1O [tobramicyn]
[4]
  bacteria death within biofilm: complete bacteria death
